The assay addresses T1, DYRK1B (Homo sapiens, UniProt Q9Y463).
T1 construct: Recombinant DYRK1B expressed in insect cells (Carna Biosciences)
As to the kind of experiment: in vitro enzyme assay; MRM mass spectrometry of autophosphorylation sites. The format is biochemical.

A value given as a limit tells only on which side of the number the result lay.

T1 sequence (Q9Y463 whole entry): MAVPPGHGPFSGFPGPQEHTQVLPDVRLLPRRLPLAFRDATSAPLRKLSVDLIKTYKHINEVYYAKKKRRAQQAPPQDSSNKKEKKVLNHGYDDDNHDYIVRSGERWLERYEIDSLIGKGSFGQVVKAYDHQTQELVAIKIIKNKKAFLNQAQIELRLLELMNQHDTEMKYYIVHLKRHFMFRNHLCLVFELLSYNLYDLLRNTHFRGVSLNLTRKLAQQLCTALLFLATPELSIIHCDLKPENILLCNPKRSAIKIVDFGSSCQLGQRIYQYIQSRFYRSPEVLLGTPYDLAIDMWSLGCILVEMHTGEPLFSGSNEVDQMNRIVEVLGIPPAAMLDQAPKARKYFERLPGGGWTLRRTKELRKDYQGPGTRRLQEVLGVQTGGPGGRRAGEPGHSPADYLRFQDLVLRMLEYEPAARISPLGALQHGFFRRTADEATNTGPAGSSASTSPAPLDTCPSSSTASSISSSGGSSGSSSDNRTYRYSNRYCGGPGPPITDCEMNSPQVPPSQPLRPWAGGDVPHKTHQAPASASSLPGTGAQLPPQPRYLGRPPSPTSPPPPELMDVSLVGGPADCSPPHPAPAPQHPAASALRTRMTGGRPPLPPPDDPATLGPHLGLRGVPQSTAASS

Usually IC50 stands for the point on the concentration scale where inhibition reaches its midpoint. Read a high IC50 as weaker potency. With AZ’294, the IC50 is less than 30 nM.

Values taken from paper PMC4735261, “Identification of DYRK1B as a substrate of ERK1/2 and characterisation of the kinase activity of DYRK1B mutants from cancer and metabolic syndrome” (Cellular and Molecular Life Sciences: CMLS, 2015).
